# Patent publication US20260317319A1, “NOVEL ERGOLINES AND METHODS OF TREATING MOOD DISORDERS” (Gilgamesh Pharma Inc., priority 2023, published 2026)
# “Also recorded” adds a separate entry of the source.
# What was measured:
# C57BL/6 mice = test: Mouse head twitch response (HTR) assay (observer-counted); type: in vivo; settings: SC; for HTR at most efficacious dose (bound): 20 min; for efficacy in HTR assay: maximal effect
# D1 dopamine receptor = molecular target: T1, D1 dopamine receptor (Homo sapiens, UniProt P21728); test: Ca2+ flux functional assay at D1; type: cell-based; settings: agonist, max dose, read-out: D1 % Act @ Max Dose
# T1 construct: expressed in transfected cells
# T1 sequence (P21728 whole entry): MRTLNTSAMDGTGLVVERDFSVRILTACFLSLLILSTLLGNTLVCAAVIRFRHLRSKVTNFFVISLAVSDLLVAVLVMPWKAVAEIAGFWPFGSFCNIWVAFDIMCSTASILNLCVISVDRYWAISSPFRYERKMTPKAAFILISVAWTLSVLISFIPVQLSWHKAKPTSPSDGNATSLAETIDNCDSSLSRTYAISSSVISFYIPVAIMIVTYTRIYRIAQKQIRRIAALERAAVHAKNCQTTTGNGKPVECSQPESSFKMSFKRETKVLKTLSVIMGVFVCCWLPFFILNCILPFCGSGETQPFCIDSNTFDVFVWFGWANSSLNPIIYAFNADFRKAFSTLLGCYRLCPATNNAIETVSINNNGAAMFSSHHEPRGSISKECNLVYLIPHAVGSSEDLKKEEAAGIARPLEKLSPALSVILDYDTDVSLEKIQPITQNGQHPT
# Description: Disclosed compounds were tested for agonist activity at several adrenergic (Alpha1A and Alpha2A) and dopamine (D1 and D2) receptor subtypes using Ca^2+ flux functional assays, with the results summarized in Table 6. Selectivity for the 5-HT2A receptor over these other targets varied depending on the specific target and compound.
# Functional Assays at Adrenergic and Dopamine Receptors. Agonist activity at Alpha1A, Alpha2A, D1, and D2 receptors was determined using a FLIPR Ca^2+ flux assay at WuXi AppTec (Hong Kong) Limited according to their standard protocols. Briefly, stably transfected cells expressing the receptor of interest were grown and plated in a 384 well plate and incubated at 37° C. and 5% CO2 overnight. A solution of 250 mM probenecid in 1 mL FLIPR assay buffer was prepared fresh. This was combined with a fluorescent dye (Fluo-4 Direct™) to make a final assay concentration of 2.5 mM. Compounds were diluted 1:3.16 for 10 points and 750 nL was added to a 384 well compound plate using ECHO along with 30 μL assay buffer. The fluorescent dye was then added to the assay plate along with assay buffer to a final volume of 40 μL. The cell plate was incubated for 50 min at 37° C. and 5% CO2 and placed into the FLIPR Tetra along with the compound plate. 10 μL of references and compounds were then transferred from the compound plate into the cell plate and the fluorescent signal was read.
# 5-HT2C receptor = molecular target: T2, 5-HT2C receptor (Homo sapiens, UniProt P28335); test: cell-based; settings: agonist, Ca2+ flux, Eurofins DiscoverX protocol, max dose; read-out: 5-HT2C % Act @ Max Dose
# T2 sequence (P28335 33-458): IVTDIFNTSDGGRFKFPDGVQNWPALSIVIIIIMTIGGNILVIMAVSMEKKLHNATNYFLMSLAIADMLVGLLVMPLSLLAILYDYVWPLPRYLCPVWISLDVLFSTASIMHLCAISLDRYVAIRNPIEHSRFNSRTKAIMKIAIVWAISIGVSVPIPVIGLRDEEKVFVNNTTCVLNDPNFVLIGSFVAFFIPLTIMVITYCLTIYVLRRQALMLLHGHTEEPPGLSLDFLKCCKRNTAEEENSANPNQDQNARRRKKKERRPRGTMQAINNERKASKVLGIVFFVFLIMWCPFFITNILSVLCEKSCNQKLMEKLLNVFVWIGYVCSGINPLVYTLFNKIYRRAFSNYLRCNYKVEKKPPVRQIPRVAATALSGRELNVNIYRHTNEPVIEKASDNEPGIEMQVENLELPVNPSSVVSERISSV
Structure (SMILES),HTR at most efficacious dose (bound) (C57BL/6 mice),# HTR/20 min at Most Efficacious Dose (C57BL/6 mice; most efficacious dose 0.32 mg/kg),Emax (D1 dopamine receptor),Emax (5-HT2C receptor),efficacy in HTR assay (C57BL/6 mice),# HTR/20 min at Most Efficacious Dose (C57BL/6 mice; most efficacious dose 3.2 mg/kg)
"CCCN1C[C@H](C(=O)N[C@H](C)CC)C=C2c3cccc4[nH]cc(c34)C[C@H]21 [Compound 3, (6aR,9R)—N—((R)-sec-butyl)-7-propyl-4,6,6a,7,8,9-hexahydroindolo[4,3-fg]quinoline-9-carboxamide]",> 15 HTR,27.0 HTR/20 min,121%,119%,–,–
"CCCN1C[C@H](C(=O)N2[C@@H](C)C[C@@H]2C)C=C2c3cccc4[nH]cc(c34)C[C@H]21 [Compound 4, ((2S,4S)-2,4-dimethylazetidin-1-yl)((6aR,9R)-7-propyl-4,6,6a,7,8,9-hexahydroindolo[4,3-fg]quinolin-9-yl)methanone]",–,–,114%,111%,less efficacious than its N-methyl counterpart compound Int11; also recorded: lower efficacy than analogous compounds bearing other amide substituents,–
"CCCN1C[C@H](C(=O)NC(CC)CC)C=C2c3cccc4[nH]cc(c34)C[C@H]21 [Compound 6, (6aR,9R)—N-(pentan-3-yl)-7-propyl-4,6,6a,7,8,9-hexahydroindolo[4,3-fg]quinoline-9-carboxamide]",> 15 HTR,–,93.1%,117%,–,–
"CCN(CC)C(=O)[C@@H]1C=C2c3cccc4[nH]cc(c34)C[C@H]2N(Cc2ccccc2OC)C1 [Compound 10, (6aR,9R)—N,N-diethyl-7-(2-methoxybenzyl)-4,6,6a,7,8,9-hexahydroindolo[4,3-fg]quinoline-9-carboxamide]",–,–,114%,13.4%,low efficacy,6.5 HTR/20 min
